From PubChem BioAssay (NCI)
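Briefly, cells in 96-well plates were exposed to five compound concentrations for 48 h, and endpoints were estimated by linear interpolation. TGI marks complete inhibition of growth.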

Key:
Experiment in all cases: growth of human tumour cells (NCI), 48 h
786-0 renal = tested on: 786-0 renal
A498 renal = tested on: A498 renal
A549 NSCLC = tested on: A549 NSCLC
ACHN renal = tested on: ACHN renal
BT-549 breast = tested on: BT-549 breast
CAKI-1 renal = tested on: CAKI-1 renal
CCRF-CEM leukemia = tested on: CCRF-CEM leukemia
COLO 205 colon = tested on: COLO 205 colon
DU-145 prostate = tested on: DU-145 prostate
EKVX NSCLC = tested on: EKVX NSCLC
HCC-2998 colon = tested on: HCC-2998 colon
HCT-116 colon = tested on: HCT-116 colon
HCT-15 colon = tested on: HCT-15 colon
HL-60(TB) leukemia = tested on: HL-60(TB) leukemia
HOP-62 NSCLC = tested on: HOP-62 NSCLC
HOP-92 NSCLC = tested on: HOP-92 NSCLC
HS 578T breast = tested on: HS 578T breast
HT29 colon = tested on: HT29 colon
IGROV1 ovarian = tested on: IGROV1 ovarian
K-562 leukemia = tested on: K-562 leukemia
KM12 colon = tested on: KM12 colon
LOX IMVI melanoma = tested on: LOX IMVI melanoma
MALME-3M melanoma = tested on: MALME-3M melanoma
MCF7 breast = tested on: MCF7 breast
MDA-MB-231 breast = tested on: MDA-MB-231 breast
MDA-MB-435 = tested on: MDA-MB-435
MDA-N = tested on: MDA-N
MOLT-4 leukemia = tested on: MOLT-4 leukemia
NCI-H226 lung = tested on: NCI-H226 lung
NCI-H23 lung = tested on: NCI-H23 lung
NCI-H460 lung = tested on: NCI-H460 lung
NCI-H522 lung = tested on: NCI-H522 lung
NCI/ADR-RES ovarian = tested on: NCI/ADR-RES ovarian
OVCAR-3 ovarian = tested on: OVCAR-3 ovarian
OVCAR-4 ovarian = tested on: OVCAR-4 ovarian
OVCAR-5 ovarian = tested on: OVCAR-5 ovarian
OVCAR-8 ovarian = tested on: OVCAR-8 ovarian
PC-3 prostate = tested on: PC-3 prostate
RPMI-8226 leukemia = tested on: RPMI-8226 leukemia
RXF 393 renal = tested on: RXF 393 renal
SF-268 CNS = tested on: SF-268 CNS
SF-295 CNS = tested on: SF-295 CNS
SF-539 CNS = tested on: SF-539 CNS
SK-MEL-28 melanoma = tested on: SK-MEL-28 melanoma
SK-MEL-5 melanoma = tested on: SK-MEL-5 melanoma
SK-OV-3 ovarian = tested on: SK-OV-3 ovarian
SN12C renal = tested on: SN12C renal
SR leukemia = tested on: SR leukemia
SW-620 colon = tested on: SW-620 colon
T-47D breast = tested on: T-47D breast
TK-10 renal = tested on: TK-10 renal
U251 CNS = tested on: U251 CNS
UACC-257 melanoma = tested on: UACC-257 melanoma
UACC-62 melanoma = tested on: UACC-62 melanoma
UO-31 renal = tested on: UO-31 renal
M14 melanoma = tested on: M14 melanoma
SK-MEL-2 melanoma = tested on: SK-MEL-2 melanoma
SNB-19 CNS = tested on: SNB-19 CNS
SNB-75 CNS = tested on: SNB-75 CNS

COc1ccc(C2=Nn3c(nc4sc5c(c4c3=O)CCCC5)SC2)cc1
TGI (786-0 renal): > 100 µM
TGI (A498 renal): > 100 µM
TGI (A549 NSCLC): > 100 µM
TGI (ACHN renal): > 100 µM
TGI (BT-549 breast): > 100 µM
TGI (CAKI-1 renal): > 100 µM
TGI (CCRF-CEM leukemia): > 100 µM
TGI (COLO 205 colon): > 100 µM
TGI (DU-145 prostate): > 100 µM
TGI (EKVX NSCLC): > 100 µM
TGI (HCC-2998 colon): > 100 µM
TGI (HCT-116 colon): > 100 µM
TGI (HCT-15 colon): > 100 µM
TGI (HL-60(TB) leukemia): > 100 µM
TGI (HOP-62 NSCLC): > 100 µM
TGI (HOP-92 NSCLC): > 100 µM
TGI (HS 578T breast): > 100 µM
TGI (HT29 colon): > 100 µM
TGI (IGROV1 ovarian): > 100 µM
TGI (K-562 leukemia): > 100 µM
TGI (KM12 colon): > 100 µM
TGI (LOX IMVI melanoma): > 100 µM
TGI (MALME-3M melanoma): > 100 µM
TGI (MCF7 breast): > 100 µM
TGI (MDA-MB-231 breast): > 100 µM
TGI (MDA-MB-435): > 100 µM
TGI (MDA-N): > 100 µM
TGI (MOLT-4 leukemia): > 100 µM
TGI (NCI-H226 lung): > 100 µM
TGI (NCI-H23 lung): > 100 µM
TGI (NCI-H460 lung): > 100 µM
TGI (NCI-H522 lung): > 100 µM
TGI (NCI/ADR-RES ovarian): > 100 µM
TGI (OVCAR-3 ovarian): > 100 µM
TGI (OVCAR-4 ovarian): > 100 µM
TGI (OVCAR-5 ovarian): > 100 µM
TGI (OVCAR-8 ovarian): > 100 µM
TGI (PC-3 prostate): > 100 µM
TGI (RPMI-8226 leukemia): > 100 µM
TGI (RXF 393 renal): > 100 µM
TGI (SF-268 CNS): > 100 µM
TGI (SF-295 CNS): > 100 µM
TGI (SF-539 CNS): > 100 µM
TGI (SK-MEL-28 melanoma): > 100 µM
TGI (SK-MEL-5 melanoma): > 100 µM
TGI (SK-OV-3 ovarian): > 100 µM
TGI (SN12C renal): > 100 µM
TGI (SR leukemia): > 100 µM
TGI (SW-620 colon): > 100 µM
TGI (T-47D breast): > 100 µM
TGI (TK-10 renal): > 100 µM
TGI (U251 CNS): > 100 µM
TGI (UACC-257 melanoma): > 100 µM
TGI (UACC-62 melanoma): > 100 µM
TGI (UO-31 renal): > 100 µM

Cc1[nH]c(-c2ccccc2)c(O)c1C(=O)OC1CC(C)CCC1C(C)C (stereo unspecified)
TGI (786-0 renal): 28.6 µM
TGI (A498 renal): 32.7 µM
TGI (A549 NSCLC): 26.2 µM
TGI (ACHN renal): 30 µM
TGI (BT-549 breast): 33 µM
TGI (CAKI-1 renal): 32.2 µM
TGI (CCRF-CEM leukemia): 31 µM
TGI (COLO 205 colon): 27.9 µM
TGI (DU-145 prostate): 29.7 µM
TGI (EKVX NSCLC): 23.9 µM
TGI (HCT-116 colon): 28.1 µM
TGI (HCT-15 colon): 32.1 µM
TGI (HL-60(TB) leukemia): 42.6 µM
TGI (HOP-62 NSCLC): 28.6 µM
TGI (HOP-92 NSCLC): 32.7 µM
TGI (HS 578T breast): 39 µM
TGI (HT29 colon): 27.5 µM
TGI (IGROV1 ovarian): 29 µM
TGI (K-562 leukemia): > 100 µM
TGI (KM12 colon): 27.9 µM
TGI (M14 melanoma): 29 µM
TGI (MALME-3M melanoma): 32.9 µM
TGI (MCF7 breast): 14.9 µM
TGI (MDA-MB-231 breast): 29 µM
TGI (MDA-MB-435): 28 µM
TGI (MDA-N): 29.9 µM
TGI (MOLT-4 leukemia): 28.1 µM
TGI (NCI-H226 lung): 30.9 µM
TGI (NCI-H23 lung): 26.6 µM
TGI (NCI-H460 lung): 28.6 µM
TGI (NCI-H522 lung): 26.6 µM
TGI (NCI/ADR-RES ovarian): 28.2 µM
TGI (OVCAR-3 ovarian): 25.2 µM
TGI (OVCAR-4 ovarian): 27.4 µM
TGI (OVCAR-5 ovarian): 27.2 µM
TGI (OVCAR-8 ovarian): 29.9 µM
TGI (PC-3 prostate): 26.7 µM
TGI (RPMI-8226 leukemia): 54.9 µM
TGI (RXF 393 renal): 24.3 µM
TGI (SF-268 CNS): 29.4 µM
TGI (SF-295 CNS): 24.8 µM
TGI (SF-539 CNS): 29.7 µM
TGI (SK-MEL-2 melanoma): 28.2 µM
TGI (SK-MEL-28 melanoma): 29.8 µM
TGI (SK-MEL-5 melanoma): 30.2 µM
TGI (SK-OV-3 ovarian): 29.1 µM
TGI (SN12C renal): 29.1 µM
TGI (SNB-19 CNS): 31.1 µM
TGI (SNB-75 CNS): 34.3 µM
TGI (SR leukemia): 34.7 µM
TGI (SW-620 colon): 29.2 µM
TGI (T-47D breast): 26.8 µM
TGI (U251 CNS): 28.9 µM
TGI (UACC-257 melanoma): 29.5 µM
TGI (UACC-62 melanoma): 30.9 µM
TGI (UO-31 renal): 26 µM
